This is an account of results in paper PMC3670040, “Structure of Lipid Kinase p110β/p85β Elucidates an Unusual SH2-Domain-Mediated Inhibitory Mechanism” (Molecular Cell, 2011).

In data set [1] the test system is p110β/p85β-nic. The data set can be described thus: ATPase activity (ADP formation) in the absence of lipid substrate, Transcreener. Particulars: absence of lipid substrate; 75 nM protein, 100 μM ATP; 5 μM GDC0941 or D913N mutation; Figure S3B. In kind it is biochemical, mouse. Here is the method:
(§1) Figure 1 Inhibition of p110β by p85-Type Regulatory Subunits and Activation of the Complexes by RTK Phosphopeptide (A) Domain organization of p110β and the regulatory subunits p85α, p85β, and p55γ. The color scheme for the domains is used for all figures, unless otherwise stated. […] The inhibition is released upon addition of the 10 μM PDGFR pY2. […] The y axis is expressed as a change in fluorescence polarization (ΔmP), which is obtained by subtracting the observed polarization for the construct at a given enzyme concentration from the maximum fluorescence polarization for that construct. The plateau in these assays arises due to the competitive nature of the ADP detection system, based on displacement of ADP-Alexa 633 tracer from the ADP^2-antibody by ADP generated during the PI3K assay (see Supplemental Experimental Procedures). All measurements were done in triplicates, and the error bars indicate the standard error of the mean (SEM). […]
The lipid kinase activity was determined using the Transcreener ADP2 FP Assay (BellBrook Labs, Madison, WI) according to manufacturer‟s specifications. This non-radioactive assay measures activity by quantitating the amount of ADP formed. The ADP formed by PI3K competes with fluorescent ADP tracer for binding to an anti-ADP antibody, thereby decreasing fluorescence polarization. […]

The test system of data set [2] is p110β. Put plainly: Transcreener ADP formation (fluorescence polarization), diC8-PIP2/POPS liposomes, mouse p110β complexes. In kind it is biochemical. The note with it: absence of pY2; ADP formation; Figures 3A, 3B. How it is done:
as §1
Figure 3 Mutation Y677A in p85β-cSH2 Releases Inhibitory Effect on p110β (A) Kinase activity (ADP formation) of p110β in a complex with p85β-icSH2-Y677A (Y677A-ic) compared to the wild-type complex (ic) in the absence and presence of 10 μM PDGFR pY2 (ADP formation on the y axis expressed as in Figure 1B). […]
The lipid kinase activity was determined using the Transcreener ADP2 FP Assay (BellBrook Labs, Madison, WI) according to manufacturer‟s specifications. This non-radioactive assay measures activity by quantitating the amount of ADP formed. The ADP formed by PI3K competes with fluorescent ADP tracer for binding to an anti-ADP antibody, thereby decreasing fluorescence polarization. Because of the competitive nature of this assay, the change in fluorescence polarization signal is not a linear function of enzyme activity, and a convenient measure of enzyme activity is the EC50, or the concentration of enzyme necessary to give half-maximal inhibition of labeled ADP binding to the antibody, for a given concentration of substrate and a fixed time of reaction at initial rate. […]
A general note: Polarisation of emitted light reports the rotation of a fluorescent probe.

Data set [3] relates to PKB. Put plainly: PKB phosphorylation in transfected HEK cells (Western blot). Format: cell-based, human. How it is done: Figure 4 cSH2 Is Important for p110β Inhibition In Vitro and in Cells (A) Kinase activity of human p110β and icSH2 wild-type constructs from three human regulatory subunits (p85α, p85β, and p55γ) in the absence and presence of 10 μM PDGFR pY2 (y axis as in Figure 1B). EC50s for wild-type and icSH2 tyrosine mutants, in the absence and presence of 10 μM PDGF pY2, are shown. (B) Western blots of HEK cells transiently expressing wild-type and mutant human p110β/p85α. The membrane was probed with antibodies against PKB, pPKB (pSer473), myc (p110β), FLAG (p85α), and actin. Bar graphs show mean ± SEM (n = 3) of PKB phosphorylation level normalized to wild-type p110β/p85α (WT). The position of the three mutations is mapped on the p110β/p85β structure. TEXT PRINTED IN THE PICTURE: (A) p110β/p85α-ic: EC50 (nM): 3 | (A) p110β/p85α-ic+pY2: EC50 (nM): 0.3 | (A) p110β/p85β-ic: EC50 (nM): 1.2 | (A) p110β/p85β-ic+pY2: EC50 (nM): 0.3 | (A) p110β/p55γ-ic: EC50 (nM): 1.5 | (A) p110β/p55γ-ic+pY2: EC50 (nM): 0.3 | (A) p110β/p85α-ic-Y685A: EC50 (nM): 0.3 | (A) p110β/p85α-ic-Y685A+pY2: EC50 (nM): 0.3 | (A) p110β/p85β-ic-Y683A: EC50 (nM): 0.4 | (A) p110β/p85β-ic-Y683A+pY2: EC50 (nM): 0.3 | (A) p110β/p55γ-ic-Y419A: EC50 (nM): 0.2 | (A) p110β/p55γ-ic-Y419A+pY2: EC50 (nM): 0.2 […]
Figure S4, Related to Figure 4. Tyr-Mutation in cSH2 Activates PI3K Downstream […]
(A) Western blot of HEK cells over-expressing wild-type and mutant human p110β/p85α complexes. Protein kinase B (PKB) phosphorylation (pPKB) levels at residues Ser473 and Thr308 were quantified and normalized WT p110β/p85α (WT).
(B) Quantification of PtdIns(3,4,5)P3 levels in HEK cells over-expressing wild-type and mutant human p110β/p85α complexes. Phospholipids were extracted from cells and PtdIns(3,4,5)P3 and PtdIns(4,5)P2 levels were quantified by mass spectrometry.
PtdIns(3,4,5)P3 / […] for each construct for two separate experiments measured in duplicates. Error bars indicate SEM. […]
The PIP3 lipids produced in PI3K in vitro assays as described above were also measured by a mass-spectrometry based assay (Clark et al.). […]
In general terms: Immunoblotting shows a protein as a band on a membrane.

Turning to `CS(=O)(=O)N1CCN(Cc2cc3nc(-c4cccc5[nH]ncc45)nc(N4CCOCC4)c3s2)CC1` [GDC0941, 2-(1H-indazol-4-yl)-6-(4-methanesulfonyl-piperazin-1-ylmethyl)-4-morpholin-4-yl-thieno[3,2-d]pyrimidine], the “inhibition of ATPase activity” value in data set [1] is reported as “fully inhibited”.

“nicSH2-Y677A: p110β complex with regulatory construct containing wild-type nSH2 but mutant cSH2-Y677A”: in data set [2], the “basal activity versus wild-type complex” value is recorded as “basal activity higher than the wild-type”.

In the case of “p85α-Y685A: full-length human p85α-Y685A cotransfected with human wild-type p110β”, the “increase in PKB phosphorylation relative to wild-type heterodimer” value in data set [3] (HEK293T cells cotransfected with human p110β and p85α mutant, pSer473 mean n = 3, Figures 4B and S4A) turned out to be 2 fold.

“p110β/p85α-N564D: heterodimer carrying somatic p85α mutation N564D”: the “phosphorylation of PKB Ser473” value in data set [3] (HEK cells, Figure 4B, n = 3) is reported as “increase in phosphorylation”. Moreover, the “phosphorylation of PKB Thr308” value in data set [3] (HEK cells, Figure S4A) is given as “increase in phosphorylation”.
